In publication PMC3634096 (The Korean Journal of Physiology & Pharmacology : …, 2013):

Target: GABAC receptor ρ1 subunit (homomeric) (Homo sapiens, UniProt P24046)
Assay: two-electrode voltage clamp in Xenopus oocytes, inhibition of GABA
Assay type: cell-based

GABAC receptor ρ1 subunit (homomeric), sequence (P24046 22-479): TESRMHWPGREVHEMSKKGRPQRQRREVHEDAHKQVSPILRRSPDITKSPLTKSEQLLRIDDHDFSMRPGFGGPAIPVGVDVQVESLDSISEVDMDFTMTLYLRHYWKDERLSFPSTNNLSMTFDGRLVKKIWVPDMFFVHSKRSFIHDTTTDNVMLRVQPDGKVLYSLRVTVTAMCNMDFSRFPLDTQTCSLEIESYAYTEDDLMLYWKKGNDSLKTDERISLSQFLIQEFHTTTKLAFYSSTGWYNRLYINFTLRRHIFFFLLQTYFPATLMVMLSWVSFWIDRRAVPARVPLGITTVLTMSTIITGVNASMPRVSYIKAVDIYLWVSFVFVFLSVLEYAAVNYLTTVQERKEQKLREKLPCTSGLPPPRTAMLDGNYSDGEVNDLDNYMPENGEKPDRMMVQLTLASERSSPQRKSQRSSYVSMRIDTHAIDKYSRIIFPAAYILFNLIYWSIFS

Question: For `Oc1ccc(/C=C/c2cc(O)cc(O)c2)cc1` [Res, Resveratrol], which IC50 is on record?
Answer: 28.9 ± 2.8 µM
